T1: glucocerebrosidase (GCase), recombinant wt. enzyme velaglucerase alfa (Homo sapiens, UniProt P04062)
T1 construct: purchased Shire Human Genetic Therapies, Inc. Vpriv
T1 sequence (P04062 40-536): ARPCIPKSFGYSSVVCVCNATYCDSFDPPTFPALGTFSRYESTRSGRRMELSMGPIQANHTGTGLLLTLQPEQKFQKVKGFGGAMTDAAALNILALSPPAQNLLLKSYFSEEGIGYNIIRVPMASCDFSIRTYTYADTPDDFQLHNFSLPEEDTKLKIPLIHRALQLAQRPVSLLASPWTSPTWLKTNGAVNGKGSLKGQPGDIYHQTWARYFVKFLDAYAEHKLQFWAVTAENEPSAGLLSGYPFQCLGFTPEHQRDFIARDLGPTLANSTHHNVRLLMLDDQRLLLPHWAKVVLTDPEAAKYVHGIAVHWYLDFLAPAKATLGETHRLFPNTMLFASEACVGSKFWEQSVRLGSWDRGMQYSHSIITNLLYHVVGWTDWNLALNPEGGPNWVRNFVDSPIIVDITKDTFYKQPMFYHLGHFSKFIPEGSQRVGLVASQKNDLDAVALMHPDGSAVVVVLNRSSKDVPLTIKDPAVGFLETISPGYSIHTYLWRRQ

T2: GCase (Homo sapiens, UniProt P04062)
T2 construct: purchased Shire Human Genetic Therapies, Inc. Vpriv
T2 sequence (P04062 40-536): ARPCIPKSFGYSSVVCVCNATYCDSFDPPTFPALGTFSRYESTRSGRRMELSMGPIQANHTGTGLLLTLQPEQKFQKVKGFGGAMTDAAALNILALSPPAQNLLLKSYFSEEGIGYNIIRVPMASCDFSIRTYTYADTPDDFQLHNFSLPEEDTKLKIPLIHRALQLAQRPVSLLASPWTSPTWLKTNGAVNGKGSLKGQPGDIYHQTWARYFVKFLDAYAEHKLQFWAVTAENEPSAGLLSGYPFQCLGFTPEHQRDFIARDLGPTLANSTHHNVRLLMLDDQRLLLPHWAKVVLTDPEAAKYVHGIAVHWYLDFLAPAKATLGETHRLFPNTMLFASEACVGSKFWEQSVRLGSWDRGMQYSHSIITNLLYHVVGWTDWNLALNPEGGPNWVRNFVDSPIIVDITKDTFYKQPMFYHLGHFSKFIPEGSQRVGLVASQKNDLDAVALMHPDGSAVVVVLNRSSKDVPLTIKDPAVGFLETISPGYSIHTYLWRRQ

T3: wt. GCase (Homo sapiens, UniProt P04062)
T3 construct: purchased Shire Human Genetic Therapies, Inc. Vpriv
T3 sequence (P04062 40-536): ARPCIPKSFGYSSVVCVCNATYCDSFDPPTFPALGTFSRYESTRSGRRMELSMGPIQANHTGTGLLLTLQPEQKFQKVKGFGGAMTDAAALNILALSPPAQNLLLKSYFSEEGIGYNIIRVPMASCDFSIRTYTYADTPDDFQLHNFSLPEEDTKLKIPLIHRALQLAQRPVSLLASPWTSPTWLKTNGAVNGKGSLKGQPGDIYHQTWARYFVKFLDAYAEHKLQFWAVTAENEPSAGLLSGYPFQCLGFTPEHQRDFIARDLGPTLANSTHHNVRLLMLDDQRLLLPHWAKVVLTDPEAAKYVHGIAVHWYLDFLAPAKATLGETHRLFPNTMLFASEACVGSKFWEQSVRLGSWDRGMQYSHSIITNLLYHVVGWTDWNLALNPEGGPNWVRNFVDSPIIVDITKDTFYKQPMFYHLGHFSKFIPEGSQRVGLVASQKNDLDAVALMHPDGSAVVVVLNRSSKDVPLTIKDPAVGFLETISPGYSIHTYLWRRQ

T4: covalent activated GCase (Homo sapiens, UniProt P04062)
T4 construct: purchased Shire Human Genetic Therapies, Inc. Vpriv
T4 sequence (P04062 40-536): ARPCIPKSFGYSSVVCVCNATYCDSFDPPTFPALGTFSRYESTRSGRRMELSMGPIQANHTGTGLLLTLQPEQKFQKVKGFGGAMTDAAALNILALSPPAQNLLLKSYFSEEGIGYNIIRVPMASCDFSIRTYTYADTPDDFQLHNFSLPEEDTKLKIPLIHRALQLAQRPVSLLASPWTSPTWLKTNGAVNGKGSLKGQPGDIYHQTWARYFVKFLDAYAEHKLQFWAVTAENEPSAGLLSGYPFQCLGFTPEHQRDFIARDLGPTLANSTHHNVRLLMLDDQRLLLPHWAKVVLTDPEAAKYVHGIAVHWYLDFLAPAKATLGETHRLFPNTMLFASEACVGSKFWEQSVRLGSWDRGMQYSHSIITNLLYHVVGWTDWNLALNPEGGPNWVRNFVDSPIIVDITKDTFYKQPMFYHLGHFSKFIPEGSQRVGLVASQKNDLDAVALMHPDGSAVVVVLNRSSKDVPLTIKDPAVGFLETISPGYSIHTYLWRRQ


Legend:
[1] = target: T1, glucocerebrosidase (GCase), recombinant wt. enzyme velaglucerase alfa; experiment: Glucocerebrosidase activity assay with blue substrate (4MU-Glc); assay type: biochemical; conditions: 4MU-Glc substrate enzyme activity assay
[2] = target: T1, glucocerebrosidase (GCase), recombinant wt. enzyme velaglucerase alfa; experiment: Glucocerebrosidase activity assay with red substrate (Res-β-glc); assay type: biochemical; conditions: at 50 μM
Protocol: The compounds in DMSO solution 0.5 μL/well were transferred to a black 96-well plate (the final titration was 24 nM to 50 μM, 12 concentrations, 2 times dilution). 33.5 μL enzyme solution (7.5 nM final concentration) was transferred to the wells. After 5 min of incubation at room temperature, the enzyme reaction was initiated by the addition of 33 μL/well blue substrate or 66.5 μL/well red substrate. Final concentrations of the blue substrate (4MU-Glc) and red substrate (Res-Glc) were 1.5 mM and 30 μM, respectively. The red substrate reaction was measured in the Biotek Synergy H1 multi-mode plate reader with Ex=573 nm and Em=610 nm at 37° C. every 20 sec for 30 min. The blue substrate reaction was terminated by the addition of 33 μL/well stop solution (1 M NaOH and 1 M glycine mixture, pH 10) after 30 min of incubation at 37° C. The fluorescence was then measured in the plate reader at Ex=365 nm and Em=440 nm. […]
The compounds in DMSO solution 0.5 μL/well was transferred to a black 96-well plate (the final titration was 24 nM to 50 μM, 12 concentrations). […] The red substrate reaction was measured in the Biotek Synergy H1 multi-mode plate reader with Ex=573 nm and Em=610 nm at 37° C. in every 20 seconds for 30 min. […] The fluorescence was then measured in the plate reader with Ex=365 nm and Em=440 nm.

[3] = target: T2, GCase; experiment: Binding affinity test by FP assay (competition with probe 3); conditions: in words; 19.5 nM to 10 μM
Protocol: The enzyme in GCase enzyme activity buffer (25 μL/well) was added to a 384-well black plate. The fluorescent probe 3 (25 nL/well, 50 nM final concentration) was transferred to a 384-well black plate using a Labcyte Echo 550 Liquid Handler system. Compounds in DMSO stock solution (50 nL) were transferred to the plate. The plate was shaken at room temperature in dark for 20 min. The final concentration was 19.5 nM to […], 10 concentrations, 2 times dilution. The fluorescence polarization was measured in a Molecular Devices Analyst GT with Ex=535 nm and Em=580 nm, G Factor=1.05.
The enzyme in GCase enzyme activity buffer (25 μL/well) was added to a 384-wells black plate, The fluorescent probe 3 (25 nL/well, 50 nM final concentration) was transferred to a 384-wells black plate by using Labcyte Echo 550 Liquid Handler system. Compounds 1, and 2 in DMSO stock solution (50 nL) (the final titration was 19.5 nM to 10 μM, 10 concentrations) were transferred to the plate. The plate was shook at room temperature in dark for 20 min. The fluorescence polarization was measured in Molecular Devices Analyst GT with Ex=535 nm and Em=580 nm, G Factor=1.05.

[4] = target: T3, wt. GCase; experiment: Saposin C activation assay with 4MU-Glc substrate, wt. enzyme; assay type: biochemical; conditions: pH 4.7
Protocol: (§1) Saposin C (0.5 μL/well) was added to a black 96-well plate (the final titration was 1.72 nM to 1.76 μM, 12 concentrations). The compound 4 activated enzyme and wt. enzyme (33.5 μL/well, 7.5 nM final concentration) in assay buffer (50 mM Citric acid, 176 mM K2HPO4, 0.01% tween-20, 0.01% (g/mL) phosphatidylserine, pH 4.7) was added to the wells, respectively. After 5 min of incubation at room temperature, the enzyme reaction was initiated by the addition of 33 μL/well 4MU-Glc substrate. Final concentrations of the 4MU-Glc substrate was 1.5 mM. The reaction was terminated by the addition of 33 μL/well stop solution (1 M NaOH and 1 M glycine mixture, pH 10) after 30 min of incubation at 37° C. The fluorescence was then measured in the plate reader with Ex=365 nm and Em=440 nm.

[5] = target: T4, covalent activated GCase; experiment: Saposin C activation assay with 4MU-Glc substrate, probe 4 pre-activated enzyme; assay type: biochemical; conditions: pH 4.7
Protocol: as §1

Molecule | maximum activity / activation activity [1] | AC50 ([1]; read-out: AC50) [µM] | activation of Res-β-glc substrate hydrolysis [2] [folds] | activity in FP competition with probe 3 [3] | AC50 [4] [µM] | AC50 [5] [µM]
Cc1cc(C)n2ccc(C(=O)Nc3ccc(-c4cn(CCOCCOCCN)nn4)cc3)c2n1 [No. 3, N-(4-(1-(2-(2-(2-aminoethoxy)ethoxy)ethyl)-1H-1,2,3-triazol-4-yl)phenyl)-2,4-dimethylpyrrolo[1,2-a]pyrimidine-8-carboxamide] | around 14 folds | 6.31 | 10 | much higher activity |  | 
Saposin C: a natural co-factor of GCase (protein, UniProt P07602 311-390, looked up, Saposin-C, a natural co-factor of GCase) Saposin-C: SDVYCEVCEFLVKEVTKLIDNNKTEKEILDAFDKMCSKLPKSLSEECQEVVDTYGSSILSILLEEVSPELVCSMLHLCSG |  |  |  |  | 0.1 | 0.071
